Here are results for two compounds from publication PMC4738272 (Scientific Reports, 2016).

In series [1] the test system is HepG2/C3A. The series can be described thus: Urea quantification, liver fraction of 4-organ system. Format: cell-based, human. The note with it: 4-organ co-culture under flow, 48 h drug treatment, vs control.
Series [2] concerns Neurons. Also noted: method as in Literature. To be noted: general toxic effects reported in the literature; ref Literature; cited from earlier work.
In series [3] the test system is HepG2/C3A. The series can be described thus: Human Serum Albumin quantification (ELISA), liver fraction of 4-organ system. In kind it is cell-based. The note with it: 4-organ co-culture under flow, 48 h drug treatment, vs control, DOX 5 μM, ATR 100 μM, VPA 2 mM, APAP 5 mM, AMAP 5 mM. The procedure:
Human Serum Albumin (HSA) production from the liver fraction was tracked throughout the co-culture, by measuring the HSA concentration in the supernatant of the culture as it represents liver protein anabolism. Samples were collected from the exchanged medium (1.2 mL) and stored at −20 °C until analysis. One freeze-thaw cycle occurred before samples were analyzed following manufacturers’ instructions provided in the ELISA Starter Accessory Kit (Bethyl Laboratories Inc, Cat #: E101). Samples were diluted as necessary in sample conjugate/diluent buffer to ensure readings measured within the range of the standard curve. The standard curve was prepared by serial dilutions of human reference serum in sample conjugate/diluent buffer (0–1600 ng/ml).
Final HSA concentrations were calculated in an excel file by first removing the average OD reading measured for blanks from average sample and standard OD readings. Concentrations of standard dilutions were plotted against average OD values measured in XY scatter plots. A standard curve was created by adding an order of 2 polynomial trendline to XY scatter plots and selecting the option to display the equation of the trendline, as well as the R^2 value, on each scatter plot (for ease of analysis HSA sigmoidal curves were split into 3 standard curves with HSA concentration ranges of 0–200 ng/ml, 200–800 ng/ml and […]). Quadratic equations were rearranged to make X (sample HSA concentration) the unknown variant. Y values (OD values) and a/b/c constants generated from trendline equations were inputted into rearranged quadratic equations per assay. HSA concentrations calculated were corrected accordingly for any differences in culture final volumes, sample dilutions during assays and cells number.

Series [4] concerns Liver. Also noted: method as in Literature. To be noted: general toxic effects reported in the literature; ref Literature; cited from earlier work.
Series [5] has as its system Human Skeletal Myofibers. Nature of the series: MTT viability of skeletal muscle module in 4-organ system. The note with it: 4-organ co-culture under flow, serum-free medium, 48 h drug treatment, day 7, vs control, DOX 5 μM, ATR 100 μM, VPA 2 mM, APAP 5 mM, AMAP 5 mM.
Source text: (§1) The four organ in vitro systems were assembled, on day 0, by placing the corresponding surfaces cell side up in a specific chamber of the housing (liver coverslip into chamber 1, cardiac coverslips and cantilevers into chambers 2 and 4, muscle coverslips into chamber 5, and neuron coverslips into chamber 3 and they were then topped with the serum-free co-culture medium (1X Neurobasal Medium, 1X B27, 1X AB/AM, 1X Glutamax (all from Life Technologies)) before locking the system. Right after assembling, the medium was completely replaced with 4 mL of the co-culture defined serum-free medium and the systems placed on a rocking platform inside an incubator. Platforms were checked every day by inspecting for expected cell morphology inside the system and by replacing medium (1.2 mL total volume) from the two reservoirs (30% of the total volume was replaced) with fresh medium. Drug incubation was initiated on day 5 of the co-culture by addition of the drug through the reservoir closer to the liver chamber (no. 1), allowing a first contact of the drug with the liver. 20 μL of the drug stock solution (or vehicle) to achieve a working concentration in 4 mL of total volume in the platform was utilized. On day 6, after 24 hours of drug incubation, 6 μL of the drug stock solution (or vehicle) was added to the fresh medium exchange volume (1.2 mL). After 48 hour of drug incubation, on day 7, systems were disassembled to test organ functionality that same day. For mono-culture conditions, surfaces remained in a 12-well plated with 1 mL of the co-culture defined serum-free medium maintained by daily replacement of half volume.
(§2) Seven days after the initiation of the co-culture, viability of each organ chamber, except for neurons, was evaluated through an MTT assay. […] Cell viability was measured at 570 nm in a Synergy HT plate reader and KC4 software. The results were expressed as the percentage of cell survival relative to the control (untreated or incubated with vehicle). The neuronal fraction viability was evaluated through morphological analysis throughout the co-culture experiment as the final coverslips were used for patch-clamp electrophysiology. Phase images (10X) where obtained every day of the co-culture. Neuronal viability was evaluated by cell morphology integrity and by cell count from day 1 to day 14.
Series [6] relates to Cardiomyocytes. Also on record: method as in Literature. To be noted: general toxic effects reported in the literature; ref Literature; cited from earlier work.
Series [7] concerns HepG2/C3A. The series can be described thus: MTT viability of liver module in 4-organ system. Format: cell-based, human. To be noted: 4-organ co-culture under flow, serum-free medium, 48 h drug treatment, day 7, vs control, DOX 5 μM, ATR 100 μM, VPA 2 mM, APAP 5 mM, AMAP 5 mM.
Source text: as §1, §2
Series [8] has as its system neurons. Nature of the series: Neuron electrophysiology recording (patch clamp). Format: cell-based, human. The note with it: 4-organ co-culture under flow, 48 h drug treatment, day 7, vs control, DOX 5 μM, ATR 100 μM, APAP 5 mM, AMAP 5 mM; for Neuronal electrophysiology, overall effect: VPA 2 mM. The source says:
Electrophysiological properties of neuron cultures where recorded on the last day of co-culture following a previously described method. Values of firing, repetitive firing, spontaneous firing, inward sodium current, outward potassium current, action potential peak voltage and the resting membrane potential, characterized the mature functionality of neurons in the in vitro system. Drug alterations of the neuronal electrophysiology are discussed in this manuscript.
On the technique in general: Patch clamp records ionic current or voltage across a cell membrane.

In series [9] the test system is Muscle. Also noted: method as in Literature. To be noted: general toxic effects reported in the literature; ref Literature; cited from earlier work.
Series [10] relates to iPSc differentiated Cardiomyocytes. Nature of the series: Cardiac beating frequency from video recordings. Format: cell-based, human. The note with it: 4-organ co-culture under flow, 48 h drug treatment, day 7, vs control; for Cardiomyocyte beating rate (beat frequency), decrease: DOX 5 μM, AMAP 5 mM; for Cardiomyocyte beating rate (beat frequency), increase: ATR 100 μM, VPA 2 mM, APAP 5 mM. How it is done:
Seven or fourteen days after the co-culture, cardiac beating frequency was quantified from video recordings of three different areas of each of the cMEA surfaces, where the cardiomyocytes culture where located. Surfaces were located in a 37 °C bath platform containing co-culture medium with 50 mM HEPES on the stage of a Zeiss Axioscope 2FS upright microscope. Beats were counted in a period of 10 s, and the average number of 3 values was obtained. Drug effect was plotted as percentage of change compared to the control conditions.

Series [11] concerns Human Skeletal Myofibers. Nature of the series: Myotube stimulated contraction (binary: contracting or not). In kind it is cell-based. The note with it: 4-organ co-culture under flow, 48 h drug treatment, day 7, broad-field electrical stimulation, DOX 5 μM, ATR 100 μM, VPA 2 mM, APAP 5 mM, AMAP 5 mM. How it is done: Myotube contraction in coverslips was evaluated after the co-culture was finalized. Individual surfaces were evaluated as previously reported in the group. Drugs effects were quantify in a binary code mode, cells were or were not contracting.

Series [12] deals with iPSc differentiated Cardiomyocytes. Nature of the series: MTT viability of cardiac module in 4-organ system. The note with it: 4-organ co-culture under flow, serum-free medium, 48 h drug treatment, day 7, vs control, DOX 5 μM, ATR 100 μM, VPA 2 mM, APAP 5 mM, AMAP 5 mM.
Source text: as §1, §2
For series [13], the system named is neurons. The series can be described thus: Neuronal viability by morphological analysis and cell count in 4-organ system. To be noted: 4-organ co-culture under flow, serum-free medium, 48 h drug treatment, day 7, vs control, DOX 5 μM, ATR 100 μM, VPA 2 mM, APAP 5 mM, AMAP 5 mM.
Source text: as §1, §2
For series [14] the following is noted: therapeutic dosages; cited from earlier work.
The conditions of series [15]: cited from earlier work.

Each structure is given as a SMILES string. Where “and” joins values, the source holds several entries; their conditions need not be identical. Equal values may be shown once. Entries after “also recorded” stand apart in the source; their conditions may differ.

Turning to `CC(=O)Nc1cccc(O)c1` [N-Acetyl-m-aminophenol], the “Urea production, increase” value in [1] (DOX 5 μM, ATR 100 μM, APAP 5 mM, AMAP 5 mM) is on record as 138 ± 19%. For the same compound, the “Drug effects on cell functionality, Neurons, Literature” value in series [2] is recorded as “Toxicity not reported”. In series [2], the “Drug effects on cell viability, Neurons, Literature” value is on record as “Toxicity not reported”. The “HSA (albumin) production, increase” value in series [3] is reported as 23 ± 4%. Besides, the “Drug effects on cell functionality, Liver, Literature” value in [4] was “Toxicity not reported”. In addition, the “Drug effects on cell viability, Liver, Literature” value in series [4] was “Toxicity not reported”. Besides, the “Skeletal muscle viability, loss” value in [5] is “Toxicity not observed”; in series [5] (listed as AMAP), “not affected”. Further, the “Drug effects on cell functionality, Cardiomyocytes, Literature” value in [6] is “Toxicity not reported”. In addition, in series [6], the “Drug effects on cell viability, Cardiomyocytes, Literature” value was “Toxicity not reported”. Besides, the “Liver (hepatocyte) cell viability, loss” value in [7] is “Toxicity not observed”; in [7] (listed as AMAP), “No significant effects”. For the same compound, in [8], the “Neuronal repetitive and spontaneous firing ability” value was “conserved”. The figures for the “Neuronal electrophysiology, overall effect” value in [8] and in [8] (listed as AMAP) were “Normal electrophysiology” and “no significant changes compared to the control”, respectively. Besides, the “Drug effects on cell functionality, Muscle, Literature” value in series [9] is “Toxicity not reported”. The “Drug effects on cell viability, Muscle, Literature” value in [9] is given as “Toxicity not reported”. For the same compound, the “Cardiomyocyte beating rate (beat frequency), decrease” value was 25 ± 4% decrease in beating rate in series [10]; 25 ± 4% and 30% in series [10] (listed as AMAP). Further, the “Skeletal muscle loss of contractile ability (share of cultures in which contraction ceased)” value in series [11] was “No loss in contractile ability”; in series [11] (listed as AMAP), “not affected”. The “Cardiomyocyte viability, loss” value in [12] is 28 ± 6% loss; in series [12] (listed as AMAP), 28 ± 6% and 30%. Moreover, the “Neuronal cell viability, loss (cell loss by morphology/cell count)” value in series [13] is listed as “Toxicity not observed, some increase in cell numbers but not significant”; in [13] (listed as AMAP) it was “No significant effects; also recorded: some increase in cell numbers; also recorded: no change in viability”.

`CCCC(CCC)C(=O)O` [Valproic Acid, Valproic acid]: the “Urea production, decrease” value in series [1] (VPA 2 mM) was found to be 13 ± 2%. The “Drug effects on cell functionality, Neurons, Literature” value in series [2] is on record as “Toxicity not reported”. Moreover, the “Drug effects on cell viability, Neurons, Literature” value in series [2] is listed as “Toxicity not reported”. The “HSA (albumin) production, increase” value in series [3] is “not affected”; in [3] (listed as VPA), “no changes”. Further, the “Concentration detected in patient plasma” value in [14] is 300 to 700 µM. Also, the “Concentration known to be cytotoxic in vitro” value in series [15] is on record as “around 2 mM”. Further, the “Drug effects on cell functionality, Cardiomyocytes, Literature” value in [6] was “Cardio-protective effect”. Also, in series [6], the “Drug effects on cell viability, Cardiomyocytes, Literature” value is on record as “Cardio-protective effect”. Besides, the “Neuronal electrophysiology, overall effect” value was “Normal electrophysiology” in [8] and “no changes compared to the control; also recorded: maintained the electrophysiological parameters” in series [8] (listed as VPA). For the same compound, the “Drug effects on cell functionality, Muscle, Literature” value in [9] is “Toxicity not reported”. Also, in [9], the “Drug effects on cell viability, Muscle, Literature” value is “Toxicity not reported”. In addition, the “Cardiomyocyte beating rate (beat frequency), increase” value is given as 38 ± 18% increase in beating frequency in series [10] and 38 ± 18% in [10] (listed as VPA).
